Entries after “also recorded” stand apart in the source; their conditions may differ. Read-outs that look alike come from different tables or passages of the source. Marks after values point to notes of the source that are not given here.

Series [1] addresses T1, hCB1Rs (Homo sapiens, UniProt P21554).
T1 construct: host or cells: CHO-K1 (CHO-hCB1)
Put plainly: cell-based. The format is cell-based.

For series [2], the system named is human liver microsomes (HLMs). Put plainly: Glucuronidation of AB-PINACA and JWH-018 metabolites in HLMs. The series is classed as in vitro ADME. The note with it: 90 min. The method, then:
A typical incubation mixture (30 μl of total volume) contained 100 mM Tris-HCl (pH 7.4), 5 mM MgCl2, 3 mM UDPGA, 80 μg/ml alamethicin, 50 μg HLMs, 5 mM saccharolactone, and 50 μM 4OH- or 5OH-AB-PINACA. […] After incubation at 37°C for 90 min, reactions were terminated by the addition of 30 μl cold ethanol. Following removal of the protein by centrifugation at 12,000 × g for 10 min, a 5-μl portion of the sample was subjected to UPLC. All incubations were performed in triplicate.
Parent compounds and glucuronidated metabolites were identified by the ACQUITY UPLC System with a UV detector (Milford, MA, United States). […] The column was re-equilibrated at initial conditions for 2.5 min between runs. The elution was monitored at 300 nm. The retention times of 4OH-AB-PINACA, 5OH-AB-PINACA, 4OH-AB-PINACA glucuronide, and JWH-018-M2 were 3.989, 3.994, 3.646, and 5.391 min.
FIGURE 4 Glucuronidation of 4OH- and 5OH-AB-PINACA in human liver microsomes (HLMs). 4OH-AB-PINACA (A) and 5OH-AB-PINACA (B) were incubated for 90 min with HLMs in the presence or absence of UDPGA. The terminated reaction mixtures were subjected to the UPLC analysis and the eluent was monitor with a UV detector at 300 nm and chromatograms presented. (C) The peak area of the glucuronide was estimated from the triplicate determinations. The data are presented as mean value ± SD. ND, not detected. (D) Comparison of glucuronidation of JWH-018-M2 and 4OH-AB-PINACA with HLMs. JWH-018-M2 and 4OH-AB-PINACA (5 μM) were incubated for 90 min with HLMs in the presence or absence of UDPGA. The terminated reaction mixtures were subjected to the UPLC analysis and the eluent was monitor with a UV detector at 300 nm. The remaining amount of the substrates was quantified by using standard curves of JWH-018-M2 and 4OH-AB-PINACA. The data was shown as mean value ± SD. ^∗P < 0.001. TEXT PRINTED IN THE PICTURE: (C) 5OH-AB-PINACA: Peak area (μV*sec): ND

Series [3] deals with T1, hCB1Rs. The series can be described thus: biochemical. The note with it: for Ki: [^3H]CP-55,940 binding, CHO-hCB1 membranes. The format is binding.
In series [4] the target is T1, hCB1Rs. Put plainly: biochemical. Conditions: for Emax: read-out: EMAX, [^35S]GTPγS binding (maximal G-protein activation).
A further series concerns CD1 mice. Put plainly: Cannabinoid-elicited hypothermia (rectal temperature). The series is classed as in vivo. The method, then:
For in vivo studies, rimonabant was synthesized in the laboratory of Dr. Thomas E. Prisinzano at the University of Kansas School of Pharmacy (Lawrence, KS, United States), and provided to us as a generous gift. AB-PINACA, and its 4OH metabolite were obtained from Cayman Chemical Company (Ann Arbor, MI, United States). All cannabinoids were dissolved in a vehicle consisting of ethanol, emulphor and saline at a ratio of 1:1:18. Injections were administered via the intraperitoneal (IP) route at a constant volume of […]. Rimonabant was administered at a dose of 10 mg/kg, 60 min before injection of AB-PINACA or its 4OH metabolite.
Adult male CD1 mice (Charles River Laboratory, Wilmington, MA, United States) were housed three subjects per cage (15.2 cm × 25.4 cm × 12.7 cm) in a temperature-controlled room in a vivarium accredited by the Association for Assessment and Accreditation of Laboratory Animal Care, and given ad libitum food (Laboratory Rodent Diet no. 5001; PMI Feeds, St. Louis, MO, United States) and water. The vivarium was maintained at 22°C ± 2°C and 45–50% humidity, with lights set to a 12-h light/dark cycle (lights on at 6:00 AM, CST). […] All procedures were carried out in accordance with the Guide for Care and Use of Laboratory Animals as adopted and promulgated by the National Institutes of Health (NIH). The experimental protocol has been approved by the Institutional Animal Care and Use Committee (IACUC) at the University of Arkansas for Medical Sciences (UAMS).
Mice were habituated to handling and weighing prior to initiation of experimental procedures. A digital thermometer (model BAT-12, PhysiTemp, Clifton, NJ, United States) equipped with a Ret-3 mouse probe (model 50314, Stoelting Co., Dale, IL, United States) was lubricated and inserted approximately 2 cm into the rectum. Stable temperatures were obtained within ∼6 s. Rectal temperature data were sampled immediately before injection, and at 10, 30, 60, 120, 240, and 360 min after injection.
Curve-fitting was conducted utilizing GraphPad Prism® v6.0b (GraphPad Software, Inc.; San Diego, CA, United States). Non-linear regression for one-site competition was used to determine the IC50 for competition receptor binding. The Cheng-Prusoff equation ([Cheng and Prusoff, 1973]) was employed to convert the experimental IC50 values obtained from competition receptor binding experiments to Ki values (a quantitative measure of receptor affinity). Curve fitting of concentration-effect curves via non-linear regression was also employed to determine the […] or IC50 (measures of potency) and Emax or Imax (measures of efficacy) for the [^35S]GTPγS and adenylyl cyclase experiments, respectively. All dissociation constants and measurements of potency were converted to pKi, pEC50, or pIC50 values by taking the negative log of each value so that parametric tests could be used for statistical comparisons. A one-way ANOVA, followed by Tukey’s Multiple Comparison post hoc test, was used to determine statistical significance (P < 0.05). For animal studies, temperature data are shown as mean values (±SEM) for groups of subjects at each drug dose and time point. For statistical analyses, only the highest dose of AB-PINACA or its 4OH- metabolite (with and without rimonabant pretreatment) were considered. The lowest temperatures recorded for each subject within each group (regardless of when after drug administration it occurred) were compared to vehicle data using a one-way ANOVA and Tukey’s HSD post hoc test. Significance was judged at P < 0.05.

Series [5] addresses T1, hCB1Rs. The format is cell-based.

T1 sequence (P21554 whole entry): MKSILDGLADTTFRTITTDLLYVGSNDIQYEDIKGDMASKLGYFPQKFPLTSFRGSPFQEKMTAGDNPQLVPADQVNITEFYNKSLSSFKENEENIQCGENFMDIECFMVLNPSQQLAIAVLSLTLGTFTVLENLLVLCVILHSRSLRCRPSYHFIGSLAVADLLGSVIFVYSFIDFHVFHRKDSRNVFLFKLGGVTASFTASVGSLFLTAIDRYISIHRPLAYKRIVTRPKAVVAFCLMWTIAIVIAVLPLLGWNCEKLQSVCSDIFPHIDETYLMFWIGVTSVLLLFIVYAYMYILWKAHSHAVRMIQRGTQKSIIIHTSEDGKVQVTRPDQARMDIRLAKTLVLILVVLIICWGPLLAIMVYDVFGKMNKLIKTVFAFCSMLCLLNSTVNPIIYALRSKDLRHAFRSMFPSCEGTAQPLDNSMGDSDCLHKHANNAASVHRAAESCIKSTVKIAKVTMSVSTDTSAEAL

Consider `CC(O)CCCn1nc(C(=O)NC(C(N)=O)C(C)C)c2ccccc21` (stereo not drawn) [4OH-AB-PINACA], for which, at hCB1Rs [1] (intact CHO-hCB1 cells, 10 μM forskolin, 15 min), the “IMAX, cAMP accumulation (maximal adenylyl cyclase inhibition)” value is 87.0 ± 2.9^a %. For the same molecule, the IC50 at hCB1Rs [1] (intact CHO-hCB1 cells, 10 μM forskolin, 15 min, read-out: IC50, cAMP accumulation (adenylyl cyclase inhibition)) was 141 nM; at hCB1Rs [1] (intact CHO-hCB1 cells, 10 μM forskolin, 15 min, read-out: pIC50, cAMP accumulation (converted)), 129 nM. The “Remaining amount of substrate in the presence vs absence of UDPGA” value in series [2] (5 μM substrate, HLMs, Figure 4D) was “such disappearance of substrate is not observed”. Also, the “Glucuronide formation (UPLC peak)” value in series [2] (50 μM substrate, HLMs with UDPGA, 37°C) is “unique peak is observed; also recorded: slightly glucuronidated”. For the same molecule, the “hCB1R affinity relative to the parent compound AB-PINACA (fold less)” value at hCB1Rs [3] (159 nM vs 4 nM) is “approximately 40 fold”. Also, the Ki at hCB1Rs [3] (Ki, 0.2 nM [^3H]CP-55,940, Cheng-Prusoff) is 159 nM; on hCB1Rs [3] (pKi, 0.2 nM [^3H]CP-55,940, mean ± SEM), 151 nM. The Emax at hCB1Rs [4] (CHO-hCB1 membranes, mean ± SEM) turned out to be 92.6 ± 13.4%. In addition, the EC50 on hCB1Rs [4] (CHO-hCB1 membranes, mean ± SEM, read-out: pEC50, [^35S]GTPγS binding (converted)) is 813 nM; on hCB1Rs [4] (CHO-hCB1 membranes, read-out: EC50, [^35S]GTPγS binding), 952 nM. Also, the “Lowest rectal temperature, hypothermic effect vs vehicle” value in the series with CD1 mice (100.0 mg/kg i.p., P < 0.05) is on record as “significantly different”. The “Lowest rectal temperature, drug alone vs rimonabant pretreatment” value in the series on CD1 mice (100.0 mg/kg i.p., rimonabant 10.0 mg/kg 60 min before, P < 0.05) is listed as “significantly different”. Further, the “Dose required for a similar level of hypothermia relative to AB-PINACA” value in the series on CD1 mice (100 mg/kg vs 10 mg/kg) is on record as approximately 10 fold. For the same molecule, the “Effect on rectal temperature” value with CD1 mice (30.0 and 100.0 mg/kg, i.p.) was “dose- and time-dependent hypothermic effects”.
Regarding `CCCCCCC(C)(C)c1ccc([C@@H]2C[C@H](O)CC[C@H]2CCCO)c(O)c1` [CP-55,940, reference compound], the “IMAX, cAMP accumulation (maximal adenylyl cyclase inhibition)” value at hCB1Rs [1] was 86.7 ± 6.4^a %. The “Efficacy (Imax) of CP-55,940 to inhibit adenylyl cyclase” value on hCB1Rs [5] is 86.7 ± 6.4%. The maximum response (Emax) on hCB1Rs [4] stood at 64 ± 3.8%.

The values above are taken from publication PMC6168621 (Frontiers in Pharmacology, 2018).
